From PubChem BioAssay (NCI)
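The compound was tested at five concentrations on cells cultured in 96-well plates, with a 48-hour exposure period. Here, GI50 denotes the concentration required for 50% inhibition of growth. The concentration for full growth arrest is given as TGI.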

Assays:
Assay in all cases: NCI-60 cell line screen, 48 h
[1] = tested on: 786-0 renal
[2] = tested on: A498 renal
[3] = tested on: A549 NSCLC
[4] = tested on: ACHN renal
[5] = tested on: BT-549 breast
[6] = tested on: CAKI-1 renal
[7] = tested on: CCRF-CEM leukemia
[8] = tested on: COLO 205 colon
[9] = tested on: DU-145 prostate
[10] = tested on: EKVX NSCLC
[11] = tested on: HCC-2998 colon
[12] = tested on: HCT-116 colon
[13] = tested on: HCT-15 colon
[14] = tested on: HL-60(TB) leukemia
[15] = tested on: HOP-62 NSCLC
[16] = tested on: HOP-92 NSCLC
[17] = tested on: HS 578T breast
[18] = tested on: HT29 colon
[19] = tested on: IGROV1 ovarian
[20] = tested on: KM12 colon
[21] = tested on: LOX IMVI melanoma
[22] = tested on: M14 melanoma
[23] = tested on: MALME-3M melanoma
[24] = tested on: MCF7 breast
[25] = tested on: MDA-MB-231 breast
[26] = tested on: MDA-MB-435
[27] = tested on: MDA-MB-468 breast
[28] = tested on: MOLT-4 leukemia
[29] = tested on: NCI-H226 lung
[30] = tested on: NCI-H23 lung
[31] = tested on: NCI-H460 lung
[32] = tested on: NCI-H522 lung
[33] = tested on: NCI/ADR-RES ovarian
[34] = tested on: OVCAR-3 ovarian
[35] = tested on: OVCAR-4 ovarian
[36] = tested on: OVCAR-5 ovarian
[37] = tested on: OVCAR-8 ovarian
[38] = tested on: PC-3 prostate
[39] = tested on: RPMI-8226 leukemia
[40] = tested on: RXF 393 renal
[41] = tested on: SF-268 CNS
[42] = tested on: SF-295 CNS
[43] = tested on: SF-539 CNS
[44] = tested on: SK-MEL-2 melanoma
[45] = tested on: SK-MEL-28 melanoma
[46] = tested on: SK-MEL-5 melanoma
[47] = tested on: SK-OV-3 ovarian
[48] = tested on: SN12C renal
[49] = tested on: SNB-19 CNS
[50] = tested on: SNB-75 CNS
[51] = tested on: SR leukemia
[52] = tested on: SW-620 colon
[53] = tested on: T-47D breast
[54] = tested on: TK-10 renal
[55] = tested on: U251 CNS
[56] = tested on: UACC-257 melanoma
[57] = tested on: UACC-62 melanoma
[58] = tested on: UO-31 renal
[59] = tested on: K-562 leukemia

## COc1cc2oc(-c3cccc(C(=O)Nc4ccc(Cl)cc4)c3)cc(=O)c2c(OCCNC(=O)[C@@H](N)CO)c1OC
[1]
  GI50: 13.2 µM
  TGI: 32.4 µM
[2]
  GI50: 32.8 µM
  TGI: 65.7 µM
[3]
  GI50: > 100 µM
  TGI: > 100 µM
[4]
  GI50: 30.6 µM
  TGI: > 100 µM
[5]
  GI50: 10.3 µM
  TGI: 25.4 µM
[6]
  GI50: 65.4 µM
  TGI: > 100 µM
[7]
  GI50: 2.39 µM
  TGI: 5.83 µM
[8]
  GI50: 6 µM
  TGI: 20.2 µM
[9]
  GI50: 16 µM
  TGI: 35.4 µM
[10]
  GI50: 16.8 µM
  TGI: > 100 µM
[11]
  GI50: 5.83 µM
  TGI: 19.3 µM
[12]
  GI50: 4.72 µM
  TGI: 19.5 µM
[13]
  GI50: 19.6 µM
  TGI: > 100 µM
[14]
  GI50: 8.2 µM
  TGI: 30.4 µM
[15]
  GI50: 7.74 µM
  TGI: 29 µM
[16]
  GI50: 2.65 µM
  TGI: 12.7 µM
[17]
  GI50: 4.32 µM
  TGI: 18.2 µM
[18]
  GI50: 6.44 µM
  TGI: 26.6 µM
[19]
  GI50: 7.15 µM
  TGI: 23.9 µM
[20]
  GI50: 15.3 µM
  TGI: 29.1 µM
[21]
  GI50: 1.79 µM
  TGI: 3.5 µM
[22]
  GI50: 1.84 µM
  TGI: 3.72 µM
[23]
  GI50: 2.47 µM
  TGI: 6.92 µM
[24]
  GI50: 3.53 µM
  TGI: 13.3 µM
[25]
  GI50: 2.87 µM
  TGI: 9.37 µM
[26]
  GI50: 4.59 µM
  TGI: 17.8 µM
[27]
  GI50: 1.51 µM
  TGI: 3.63 µM
[28]
  GI50: 2.4 µM
  TGI: 5.18 µM
[29]
  GI50: 12.8 µM
  TGI: 53 µM
[30]
  GI50: 12.6 µM
  TGI: 30.2 µM
[31]
  GI50: 8.48 µM
  TGI: 22.1 µM
[32]
  GI50: 3.61 µM
  TGI: 18 µM
[33]
  GI50: > 100 µM
  TGI: > 100 µM
[34]
  GI50: 13.4 µM
  TGI: 26.9 µM
[35]
  GI50: 12.8 µM
  TGI: 30.3 µM
[36]
  GI50: 9.96 µM
  TGI: 44.3 µM
[37]
  GI50: 10.1 µM
  TGI: 21.7 µM
[38]
  GI50: 10.8 µM
  TGI: 35.6 µM
[39]
  GI50: 3.36 µM
  TGI: > 100 µM
[40]
  GI50: 8.76 µM
  TGI: 67.6 µM
[41]
  GI50: 13.9 µM
  TGI: 32.4 µM
[42]
  GI50: 6.84 µM
  TGI: 25.1 µM
[43]
  GI50: 11.3 µM
  TGI: 24.5 µM
[44]
  GI50: 2.1 µM
  TGI: 5.03 µM
[45]
  GI50: 1.77 µM
  TGI: 3.46 µM
[46]
  GI50: 9.11 µM
  TGI: 26.6 µM
[47]
  GI50: 14.8 µM
  TGI: 38.2 µM
[48]
  GI50: 6.64 µM
  TGI: 21.4 µM
[49]
  GI50: 4.94 µM
  TGI: 18 µM
[50]
  GI50: 10.2 µM
  TGI: 24.3 µM
[51]
  GI50: 2.66 µM
  TGI: 7.75 µM
[52]
  GI50: 3.93 µM
  TGI: 14.1 µM
[53]
  GI50: 4.19 µM
  TGI: 21.9 µM
[54]
  GI50: 16.9 µM
  TGI: 37 µM
[55]
  GI50: 2.02 µM
  TGI: 3.9 µM
[56]
  GI50: 1.97 µM
  TGI: 3.74 µM
[57]
  GI50: 13.5 µM
  TGI: 31.6 µM
[58]
  GI50: 45.6 µM
  TGI: > 100 µM

## COc1ccc2[nH]c(O)c(N=NC(=O)Cn3c(-c4ccccc4)nc4cc(C)ccc43)c2c1
[1]
  GI50: 16 µM
  TGI: 30.2 µM
[2]
  GI50: 17.1 µM
  TGI: 32.6 µM
[3]
  GI50: 16.6 µM
  TGI: 36.7 µM
[4]
  GI50: 14.5 µM
  TGI: 27.5 µM
[5]
  GI50: 13.4 µM
  TGI: 27.9 µM
[6]
  GI50: 12.6 µM
  TGI: 27 µM
[7]
  GI50: 17.3 µM
  TGI: 43.6 µM
[8]
  GI50: 17.5 µM
  TGI: 35.1 µM
[9]
  GI50: 19.9 µM
  TGI: 44.4 µM
[10]
  GI50: 11 µM
  TGI: 24.6 µM
[11]
  GI50: 17.5 µM
  TGI: 31.6 µM
[12]
  GI50: 14 µM
  TGI: 28 µM
[13]
  GI50: 15.5 µM
  TGI: 31.1 µM
[14]
  GI50: 17.5 µM
  TGI: 42.3 µM
[15]
  GI50: 16 µM
  TGI: 35.6 µM
[16]
  GI50: 3.3 µM
  TGI: 18 µM
[17]
  GI50: 13.2 µM
  TGI: 46.1 µM
[18]
  GI50: 21.5 µM
  TGI: 55.5 µM
[19]
  GI50: 14.7 µM
  TGI: 29.6 µM
[59]
  GI50: 18 µM
  TGI: 62.4 µM
[20]
  GI50: 18.7 µM
  TGI: 42.5 µM
[21]
  GI50: 14.9 µM
  TGI: 28.3 µM
[22]
  GI50: 15.7 µM
  TGI: 31.2 µM
[23]
  GI50: 14.5 µM
  TGI: 28.8 µM
[24]
  GI50: 13.5 µM
  TGI: 31.6 µM
[25]
  GI50: 13.1 µM
  TGI: 26.4 µM
[26]
  GI50: 16.7 µM
  TGI: 34.7 µM
[27]
  GI50: 14.9 µM
  TGI: 30.2 µM
[28]
  GI50: 10.6 µM
  TGI: 37.2 µM
[29]
  GI50: 14 µM
  TGI: 30.7 µM
[30]
  GI50: 16.7 µM
  TGI: 31.8 µM
[31]
  GI50: 19.3 µM
  TGI: 42.3 µM
[32]
  GI50: 15.2 µM
  TGI: 32.4 µM
[33]
  GI50: 16.8 µM
  TGI: 34.5 µM
[34]
  GI50: 17.5 µM
  TGI: 42.9 µM
[35]
  GI50: 15 µM
  TGI: 36.9 µM
[36]
  GI50: 14.9 µM
  TGI: 28.6 µM
[37]
  GI50: 15.7 µM
  TGI: 37.1 µM
[38]
  GI50: 10.7 µM
  TGI: 26.5 µM
[39]
  GI50: 9.97 µM
  TGI: 35.9 µM
[40]
  GI50: 2.37 µM
  TGI: 12.6 µM
[41]
  GI50: 18.5 µM
  TGI: 64.2 µM
[42]
  GI50: 14.3 µM
  TGI: 29 µM
[43]
  GI50: 14.9 µM
  TGI: 28.5 µM
[44]
  GI50: 14.9 µM
  TGI: 30.4 µM
[45]
  GI50: 16.5 µM
  TGI: 30.9 µM
[46]
  GI50: 15 µM
  TGI: 28.5 µM
[47]
  GI50: 15.8 µM
  TGI: 31.3 µM
[48]
  GI50: 13.5 µM
  TGI: 26.9 µM
[49]
  GI50: 16.2 µM
  TGI: 32.6 µM
[50]
  GI50: 9.86 µM
  TGI: 24.2 µM
[52]
  GI50: 20.1 µM
  TGI: 47.6 µM
[53]
  GI50: 7.33 µM
  TGI: 28.1 µM
[54]
  GI50: 29 µM
  TGI: 77.3 µM
[55]
  GI50: 17 µM
  TGI: 36.2 µM
[56]
  GI50: 15.9 µM
  TGI: 31.7 µM
[57]
  GI50: 12.4 µM
  TGI: 25.5 µM
[58]
  GI50: 7.52 µM
  TGI: 23.7 µM
